{"source": "patent US20170312301A1", "about": "“SKIN BARRIER FUNCTION-IMPROVING AGENT AND COMPOSITION FOR IMPROVING SKIN BARRIER FUNCTION” (SHOWA DENKO K.K., priority 2014, published 2017)", "key": {"occludin": {"test_system": "occludin", "test": "Test for evaluating TJ-forming ability: occludin immunostaining fluorescence intensity in Skin Model slices", "type": "cell-based", "settings": "1 w/v %, relative to non-applied group"}, "occludin (OCL) gene": {"test_system": "occludin (OCL) gene", "test": "Promoting effect on TJ-related gene expression: occludin (OCL) gene (quantitative real-time PCR, standardized to GAPDH)", "type": "cell-based, human", "settings": "SVHK cells, 1 μM, 48 hours, purified water control = 1.00", "experimental": "(§1) Human epidermal cells (SVHK cells) which were established from introduction of SV40 gene into human epidermal cells, were seeded on a plastic petri dish at a seeding density of 10,000 cells/cm^2 and cultured for 24 hours in Dulbecco's Modified Eagle's Medium (DMEM, manufactured by Sigma-Aldrich Co. LLC.) containing 10% fetal bovine serum. Next, to the medium of SVHK cells, 1 μM inositol derivative (composition thereof will be described below) dissolved in purified water was added to the final concentration of 1 μM, and culturing was further performed for 48 hours. […] The inositol derivative used was analyzed by using liquid chromatography-mass spectrometry (LC-MS), and the results are as follows. […] Next, quantitative real-time PCR was performed using this cDNA as a template, and the expression levels of claudin-1 (CLDN1) gene and occludin (OCL) gene in SVHK cells of each group were quantified. In addition, the expression level of glyceraldehyde-3-phosphate dehydrogenase (GAPDH) which is a housekeeping gene in which variation is not observed in the expression by adding a compound, as an internal standard gene, was quantified, and based on the expression levels of GAPDH gene in SVHK cells of each group, the expression levels of CLDN1 gene and OCL gene were standardized. […]"}, "TRPV4 gene": {"test_system": "TRPV4 gene", "test": "Promoting effect on TRPV4 gene expression (quantitative real-time PCR, standardized to GAPDH)", "type": "cell-based, human", "settings": "SVHK cells, 1 μM, 48 hours, purified water control = 1.00", "experimental": "as §1, with “cells, an” for “cells, 1 μM”, “hours. As for a control, in place of 1 μM inositol derivative, the same amount of purified water was added to SVHK cells, and the cells were cultured in the same manner as above.” for “hours.”, “of TRPV4” for “of claudin-1 (CLDN1) gene and occludin (OCL)”, “of TRPV4” for “of CLDN1 gene and OCL”"}, "claudin-1 (CLDN1) gene": {"test_system": "claudin-1 (CLDN1) gene", "test": "Promoting effect on TJ-related gene expression: claudin-1 (CLDN1) gene (quantitative real-time PCR, standardized to GAPDH)", "type": "cell-based, human", "settings": "SVHK cells, 1 μM, 48 hours, purified water control = 1.00", "experimental": "as §1"}, "[1]": {"test_system": "Skin Model (type EP1-200)", "test": "Test for evaluating TJ-forming ability: transepidermal water loss (TEWL) of Skin Model", "type": "cell-based", "settings": "1 w/v % on surface of Skin Model, 24 hours", "experimental": "Skin Model (type “EP1-200” manufactured by KURABO INDUSTRIES LTD.) was cultured before 24 hours at 37° C. under 5% CO2. Next, an inositol derivative (composition thereof will be described below) dissolved in purified water in each concentration of 0.1, 0.5, and 1 w/v % was added to the surface of Skin Model, and culturing was further performed for 24 hours. Next, the inositol derivative was removed, Skin Model was washed three times with a phosphate buffer solution, and transepidermal water loss (TEWL) thereof was measured. For the measurement of TEWL, a cyclone-type moisture-transpiration meter (manufactured by […]) was used. The inositol derivative used was analyzed by using liquid chromatography-mass spectrometry (LC-MS), and the results are as follows. […] As for a control, prepared were a group added with nothing in place of the inositol derivative and a group added with the same amount of purified water in place of the inositol derivative, and TEWL was measured in the same manner as above. In addition, for comparison, prepared was a group in which myo-inositol dissolved in purified water in a concentration of 1 w/v % was added in place of the inositol derivative, and TEWL was measured in the same manner as above."}}}
{"smiles": "O[C@H]1[C@H](O)[C@@H](O)[C@H](O)[C@@H](O)[C@H]1O", "note": "[Myo-inositol, myo-inositol]", "values": [{"measurement": "Fluorescence intensity (relative value)", "setting": "occludin", "result": 3.32, "unit": "relative value"}, {"measurement": "Expression levels of gene (relative value) OCL", "setting": "occludin (OCL) gene", "result": 0.94, "unit": "relative value"}, {"measurement": "Expression levels of TRPV4 gene (relative value)", "setting": "TRPV4 gene", "result": 0.84, "unit": "relative value"}, {"measurement": "Expression levels of gene (relative value) CLDN1", "setting": "claudin-1 (CLDN1) gene", "result": 1.57, "unit": "relative value"}, {"measurement": "TEWL", "setting": "[1]", "result": "30.7 ± 2.9 g/(h · m^2)"}]}
